Experimental data from patent US10716749B2, “Methods and compositions for treating a renal disease condition in a subject” (Palo Alto Investors, priority 2005, dated 2020).

Tests used:
[1] = system: Patients with anticipated use of radiocontrast prior to diagnostic coronary catherization; test: Intrarenal administration of metoprolol to prevent contrast nephropathy; format: in vivo, human; conditions: intrarenal infusion 1 hour prior to the procedure; patients receiving radiocontrast
Description: Patients are prospectively enrolled on the basis of anticipated use of radiocontrast prior to a scheduled diagnostic coronary catherization. Treatment subjects are treated by intrarenal infusion of metoprolol 1 hour prior to the procedure.

[2] = system: Patients with a clinical diagnosis of hypertension; test: Intrarenal administration of a renin inhibitor to treat hypertension; format: in vivo, human; conditions: weekly infusions via an intrarenal catheter; control: saline infusions; sphygmomanometer
Description: Patients are enrolled on the basis of a clinical diagnosis of hypertension based on serial systolic and diastolic blood pressure measurements by sphygmomanometer. Treatment subjects are treated by weekly infusions of Aliskiren via an intrarenal catheter.

| SMILES | incidence of contrast nephropathy (as indicated by a greater than 25% increase in serum creatinine post-procedure) as compared to control [1] | diastolic blood pressure measurements compared to control [2] | systolic blood pressure measurements compared to control [2] |
| --- | --- | --- | --- |
| COCCc1ccc(OCC(O)CNC(C)C)cc1 (stereo not drawn) [metoprolol] | significant reduction |  |  |
| COCCCOc1cc(C[C@@H](C[C@H](N)[C@@H](O)C[C@H](C(=O)NCC(C)(C)C(N)=O)C(C)C)C(C)C)ccc1OC [Aliskiren] |  | significant reduction | significant reduction |
